The values below are quoted from earlier work in patent US20160081962A1, “N[…] DIETARY S[…] ACIDS AND NITRITE” (NITROMEGA CORP., priority 2013, published 2016).

Each structure is given as a SMILES string.

For this data set the following is noted: exogenous NO3^− intake 10 mg/kg in humans; in 30 min.

In the case of `O=[N+]([O-])O` [NO3^−, nitrate], the “increase of plasma NO2^− concentration” value was “up to four- to five-fold”.
